Assay results as given in patent US11958864B2, “Tetracyclic heterocycle compounds useful as HIV integrase inhibitors” (Merck Sharp & Dohme LLC, priority 2021, dated 2024).

Experiment: Dog pharmacokinetic studies: oral dosing of Compound A or prodrug, plasma Compound A by LC-MS/MS
Type: in vivo, Male Beagle Dogs
Conditions: fasted Beagle dogs, comparison with dosing of Compound A
Protocol: Male Beagle Dogs (Marshall Farms) were used for the pharmacokinetic studies. Studies were conducted under a protocol approved by the WP-IACUC (Animal Procedure Statement #2018-600787-MAR). Following overnight-fasting, dogs were dosed orally with either Compound A at 10 mg/kg and 25 mg/kg or one of the respective prodrugs at the dose equivalent to 10 mg/kg and 25 mg/kg of Compound A formulated as a suspension in either 0.5% methylcellulose with 0.25% sodium lauryl sulfate or 10% Tween 80-5 mM HCl. Food was returned at 4 hours after dosing. Blood (0.5-mL) was drawn at pre-dose, 0.25, 0.5, 1, 2, 4, 6, 24, 48, 72, 96, and 168 hours post-dosing into EDTA-coated collection tubes containing 25 μL of 2 mM dichlorvos solution in water. The tubes were kept chilled prior to blood collection and throughout plasma separation. The plasma was separated by centrifugation (2 minutes at 10000 g). Plasma samples were immediately frozen and kept at −70° C. until analysis by LC-MS/MS.

Row | Compound | absorption versus their metabolite, Compound A
1 | COCCOC(=O)OCOc1c2n3c(c(C(=O)NCc4cccc(Cl)c4F)c1=O)CC[C@@H]3[C@@H]1OCCCN1C2=O [Compound 1, (((11aS,11bR)-3-((3-chloro-2-fluorobenzyl)carbamoyl)-4,6-dioxo-1,2,4,6,9,10,11a,11b-octahydro-8H-[1,3]oxazino[2′,3′:3,4]pyrazino[2,1,6-cd]indolizin-5-yl)oxy)methyl (2-methoxyethyl) carbonate] | increase in absorption
2 | COC(=O)OCOc1c2n3c(c(C(=O)NCc4cccc(Cl)c4F)c1=O)CC[C@@H]3[C@@H]1OCCCN1C2=O [Compound 6, (((11aS,11bR)-3-((3-chloro-2-fluorobenzyl)carbamoyl)-4,6-dioxo-1,2,4,6,9,10,11a,11b-octahydro-8H-[1,3]oxazino[2′,3′:3,4]pyrazino[2,1,6-cd]indolizin-5-yl)oxy)methyl methyl carbonate] | increase in absorption
